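Test compounds were applied to cells in 96-well plates for 48 hours at 5 doses. At the GI50, growth is halved.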 Activity calls are given as the source filed them. No stated cut-off is given here; in the data, active = GI50 up to about 1.1 µM and inactive = higher.
Key:
Experiment in all cases: DTP human tumour cell line panel, 48 h
786-0 = tested on: 786-0
ACHN = tested on: ACHN
BT-549 = tested on: BT-549
CAKI-1 = tested on: CAKI-1
COLO 205 = tested on: COLO 205
EKVX = tested on: EKVX
KM12 = tested on: KM12
MOLT-4 = tested on: MOLT-4
Malme-3M = tested on: Malme-3M
NCI-H226 = tested on: NCI-H226
OVCAR-4 = tested on: OVCAR-4
RPMI-8226 = tested on: RPMI-8226
RXF 393 = tested on: RXF 393
SF-268 = tested on: SF-268
SF-295 = tested on: SF-295
SF-539 = tested on: SF-539
SNB-75 = tested on: SNB-75
SR = tested on: SR
T47D = tested on: T47D
SNB-78 = tested on: SNB-78

| SMILES | GI50 (786-0) | GI50 (ACHN) | GI50 (BT-549) | GI50 (CAKI-1) | GI50 (COLO 205) | GI50 (EKVX) | GI50 (KM12) | GI50 (MOLT-4) | GI50 (Malme-3M) | GI50 (NCI-H226) | GI50 (OVCAR-4) | GI50 (RPMI-8226) | GI50 (RXF 393) | GI50 (SF-268) | GI50 (SF-295) | GI50 (SF-539) | GI50 (SNB-75) | GI50 (SR) | GI50 (T47D) | GI50 (SNB-78) |
| --- | --- | --- | --- | --- | --- | --- | --- | --- | --- | --- | --- | --- | --- | --- | --- | --- | --- | --- | --- | --- |
| COc1ccc2c(c1)c1nn(CCN(C)C)c3ccc4c(=O)n(CCN(C)C)c(=O)n2c4c13 | < 0.01 µM (active) | < 0.01 µM (active) | 0.946 µM (active) | 0.0682 µM (active) | < 0.0143 µM (active) | 0.0746 µM (active) | < 0.0142 µM (active) | < 0.01 µM (active) | 0.0904 µM (active) | 0.125 µM (active) | < 0.01 µM (active) | < 0.01 µM (active) | 0.133 µM (active) | < 0.01 µM (active) | < 0.01 µM (active) | 0.169 µM (active) | < 0.01 µM (active) | < 0.01 µM (active) | 0.144 µM (active) |  |
| CCOc1ccc(/N=C\c2cc(OC)c(OC)c(OC)c2)cc1 | > 100 µM (inactive) | > 100 µM (inactive) |  | > 100 µM (inactive) |  | > 100 µM (inactive) | > 100 µM (inactive) | > 100 µM (inactive) | > 100 µM (inactive) |  | > 100 µM (inactive) | 18.2 µM (inactive) | 2.08 µM (inactive) | > 100 µM (inactive) | > 100 µM (inactive) | > 100 µM (inactive) | 32.4 µM (inactive) |  |  | > 100 µM (inactive) |
| CC1=C(/C(C)=N/NC(=O)C(N)=O)Sc2ccccc2N1 | > 100 µM (inactive) | > 100 µM (inactive) |  | > 100 µM (inactive) | > 100 µM (inactive) | > 100 µM (inactive) | > 100 µM (inactive) | > 100 µM (inactive) | > 100 µM (inactive) |  | > 100 µM (inactive) | > 100 µM (inactive) | > 100 µM (inactive) | > 100 µM (inactive) | > 100 µM (inactive) | > 100 µM (inactive) | 65.8 µM (inactive) |  |  | > 100 µM (inactive) |
| COc1cc(/C=C/C(=O)c2sc(Nc3ccccc3)nc2C)ccc1O | > 100 µM (inactive) | 50.5 µM (inactive) |  | 42.9 µM (inactive) | > 100 µM (inactive) | 19.8 µM (inactive) | > 100 µM (inactive) | 46 µM (inactive) | > 100 µM (inactive) |  |  | 83.2 µM (inactive) | 51.9 µM (inactive) | 49.2 µM (inactive) | 38.2 µM (inactive) | > 100 µM (inactive) | 23.5 µM (inactive) |  |  | > 100 µM (inactive) |
| COc1c2ccccc2c(OC)c2nc(C)ccc12 | 51.9 µM (inactive) | > 100 µM (inactive) | > 79.1 µM (inactive) | > 94 µM (inactive) | 56.1 µM (inactive) | > 100 µM (inactive) | > 100 µM (inactive) | 40.6 µM (inactive) | > 93.5 µM (inactive) | > 100 µM (inactive) | > 100 µM (inactive) | 81.8 µM (inactive) | > 100 µM (inactive) | > 100 µM (inactive) | > 100 µM (inactive) | > 100 µM (inactive) | > 100 µM (inactive) | 30.8 µM (inactive) | > 100 µM (inactive) |  |
| COc1ccc(C(=O)C(C(=O)C(=O)Nc2nccs2)c2ccc(OC)cc2)cc1 (stereo not drawn) | > 100 µM (inactive) | > 100 µM (inactive) |  | > 100 µM (inactive) | > 100 µM (inactive) |  | > 100 µM (inactive) | > 100 µM (inactive) | > 100 µM (inactive) |  | > 10 µM (inactive) | > 100 µM (inactive) | 80.9 µM (inactive) | > 100 µM (inactive) |  | > 100 µM (inactive) | 73.6 µM (inactive) |  |  | > 100 µM (inactive) |
| NC1=NNC2(C(N)=N1)c1ccccc1-c1ccccc12 | > 10 µM (inactive) | > 10 µM (inactive) | > 10 µM (inactive) | > 10 µM (inactive) | > 10 µM (inactive) | > 10 µM (inactive) | > 10 µM (inactive) | > 10 µM (inactive) | > 10 µM (inactive) | > 10 µM (inactive) | > 10 µM (inactive) | > 10 µM (inactive) | > 10 µM (inactive) | > 10 µM (inactive) | > 10 µM (inactive) | > 10 µM (inactive) | > 10 µM (inactive) | > 10 µM (inactive) | > 10 µM (inactive) |  |
| Cc1cc(C)c(-n2c(C)c(C)c(C#N)c2N)c(C)c1 | 41 µM (inactive) | 31.3 µM (inactive) | 34.8 µM (inactive) | 43.3 µM (inactive) | 19.7 µM (inactive) | 27.5 µM (inactive) | 36.1 µM (inactive) | 15.6 µM (inactive) | 25.1 µM (inactive) | 25 µM (inactive) | 29 µM (inactive) | 18.6 µM (inactive) | 22.1 µM (inactive) | 38.6 µM (inactive) | 36.4 µM (inactive) | 23.4 µM (inactive) | 31.9 µM (inactive) | 11 µM (inactive) | 26.3 µM (inactive) |  |
| COC(=O)C1CC23CCCN4CCC5(c6ccccc6N(C=O)C15CC2)C43 (stereo not drawn) | > 100 µM (inactive) | > 100 µM (inactive) | > 100 µM (inactive) | > 100 µM (inactive) | > 100 µM (inactive) | > 100 µM (inactive) | > 100 µM (inactive) | > 100 µM (inactive) | > 100 µM (inactive) | > 100 µM (inactive) | > 100 µM (inactive) | > 100 µM (inactive) | > 100 µM (inactive) | > 100 µM (inactive) | > 100 µM (inactive) | > 100 µM (inactive) | > 100 µM (inactive) | > 100 µM (inactive) | > 100 µM (inactive) |  |
| CC(C)(C)OC(=O)NC(CCCCNC(=O)OCc1ccccc1)C(=O)NCCNc1ccc(NCCNC(=O)C(CCCCNC(=O)OCc2ccccc2)NC(=O)OC(C)(C)C)c2c1C(=O)c1ccccc1C2=O (stereo not drawn) | > 56.9 µM (inactive) | > 100 µM (inactive) | > 71 µM (inactive) | > 100 µM (inactive) | 27.2 µM (inactive) | > 100 µM (inactive) | 25.6 µM (inactive) | > 100 µM (inactive) | > 86.3 µM (inactive) | > 86.5 µM (inactive) | > 100 µM (inactive) | 1.02 µM (active) | 25.7 µM (inactive) | > 31.8 µM (inactive) | > 93.8 µM (inactive) | 17.6 µM (inactive) | 15.3 µM (inactive) | 24.3 µM (inactive) | 5.11 µM (inactive) |  |
| CC(=O)Nc1ccc(S(=O)(=O)[N-]C2C(=O)c3ccccc3C(=O)C2[n+]2ccccc2)cc1 (stereo not drawn) | > 100 µM (inactive) | 15.8 µM (inactive) | 3.02 µM (inactive) | > 100 µM (inactive) | > 100 µM (inactive) | 31 µM (inactive) | 14.6 µM (inactive) | 17.6 µM (inactive) | 12.4 µM (inactive) | > 100 µM (inactive) | 15.5 µM (inactive) | 17.5 µM (inactive) | 16 µM (inactive) | 18.5 µM (inactive) | 15.4 µM (inactive) | 18.5 µM (inactive) | 16.1 µM (inactive) | 13.5 µM (inactive) | 47.6 µM (inactive) |  |
